Results reported in publication PMC11876671, “Investigating blood–brain barrier penetration and neurotoxicity of natural products for central nervous system drug development” (Scientific Reports, 2025).
Counter-ions that a name gives are not always drawn.

experiment: in vitro; conditions: PAMPA, PAMPA-BBB Pe

Row | Compound | Papp [×10⁻⁶ cm/s]
1 | COC(=O)c1c(C)cc(O)c(C)c1O [VERAMOSS] | 225

same assay, conditions: PAMPA, PAMPA-BBB Pe(10^-6 cm/sec)

Row | Compound | Papp [×10⁻⁶ cm/s]
2 | COc1cc2c(c(OC)c1OC)-c1ccc(OC)c(=O)cc1[C@@H](NC(C)=O)CC2 [COLCHCINE] | < 1
3 | CN(C)[C@@H]1C(O)=C(C(N)=O)C(=O)[C@@]2(O)C(O)=C3C(=O)c4c(O)ccc(Cl)c4[C@@](C)(O)[C@H]3C[C@@H]12 [[…]] | < 1
4 | CO[C@H]1/C=C/O[C@@]2(C)Oc3c(C)c(O)c4c(O)c(c(/C=N/N5CCN(C)CC5)c(O)c4c3C2=O)NC(=O)/C(C)=C\C=C\[C@H](C)[C@H](O)[C@@H](C)[C@@H](O)[C@@H](C)[C@H](OC(C)=O)[C@@H]1C [Rifampicin] | 3.7
5 | Oc1ccc(O)cc1 [HYDROQUINONE] | < 1
6 | CN1c2c(nc(N)[nH]c2=O)NC[C@@H]1CNc1ccc(C(=O)N[C@@H](CCC(=O)O)C(=O)O)cc1 [LEVOMEFOLATE] | < 1

same assay, conditions: PAMPA, PAMPA-BBB Pe(10^-6 cm/sec), Table S3: compounds exhibiting low PAMPA-BBB permeability

Row | Compound | Papp [×10⁻⁶ cm/s]
7 | CC1=C(O)C(=O)[C@@H]2O[C@@H]2C1=O [TERREIC ACID] | 6.8
8 | O=c1ccn([C@@H]2O[C@H](COP(=O)(O)O)[C@@H](O)[C@H]2O)c(=O)[nH]1 [URIDINE PHOSPHATE] | < 1
9 | Cn1cnc(N)c2ncnc1-2 [3-METHYL-6-AMINOPURINE] | < 1
10 | Clc1ccc([C@@H]2C[C@H]3CC[C@@H]2N3)cn1 [Epibatidine dihydrochloride] | 5.9
11 | CSC[C@H]1O[C@@H](n2cnc3c(N)ncnc32)[C@H](O)[C@@H]1O [METHYLTHIOADENOSINE] | < 1
12 | O=c1cc(O)cc(/C=C/c2ccc(O)c(O)c2)o1 [HISPIDIN] | < 1
13 | O=C(O)c1cccnc1C(=O)O [QUINOLINIC ACID] | < 1
14 | C[C@@H]1C/C=C/C=C/C=C/C=C/[C@H](O[C@@H]2O[C@H](C)[C@@H](O)[C@H](N)[C@@H]2O)C[C@@H]2O[C@](O)(C[C@@H](O)C[C@H]3O[C@@H]3/C=C/C(=O)O1)C[C@H](O)[C@H]2C(=O)O [NATAMYCIN] | 5.7
15 | CN(Cc1nc2c(N)nc(N)nc2nc1O)c1ccc(C(=O)N[C@@H](CCC(=O)O)C(=O)O)cc1 [7-HYDROXYMETHOTREXATE] | < 1
16 | NC1C=CC=C(C(=O)O)C1 (stereo not drawn) | < 1
17 | O=c1cc(-c2ccc(O)c(O)c2)oc2cc(O)cc(O)c12 [LUTEOLIN] | 2.2
18 | O=C(/C=C/c1ccc(O)c2c1[C@H](C(=O)O)[C@@H](c1ccc(O)c(O)c1)O2)O[C@H](Cc1ccc(O)c(O)c1)C(=O)O [LITHOSPERMIC ACID A] | < 1
19 | O=c1c(O)c(-c2ccccc2O)oc2cc(O)cc(O)c12 [DATISCETIN] | 2.2
20 | O=C(/C=C/c1ccc(O)c(O)c1)O[C@@H]1C[C@@](OC(=O)/C=C/c2ccc(O)c(O)c2)(C(=O)O)C[C@@H](O)[C@@H]1O [CYNARINE] | < 1
21 | COc1ccc2[nH]c3c(c2c1)CCNC3 [Pinoline] | 2.5
22 | CC(=O)Nc1ccccc1O [O-ACETAMIDOPHENOL] | < 1
23 | CC/C=C\CC1=C(C)CCC1=O [JASMONE] | < 1
24 | CC(C)(COP(=O)(O)OP(=O)(O)OC[C@H]1O[C@@H](n2cnc3c(N)ncnc32)[C@H](O)[C@@H]1OP(=O)(O)O)[C@@H](O)C(=O)NCCC(=O)NCCS [COENZYME A] | < 1
25 | CNc1ccccc1C(=O)N1CCc2c([nH]c3ccccc23)C1=O [Rhetsinine] | 2.6
26 | [O-][n+]1ccccc1SSc1cccc[n+]1[O-] [[…]] | < 1
27 | Oc1ccc2c(c1)OC[C@]1(O)Cc3cc(O)c(O)cc3[C@H]21 [BRAZILIN] | 1.9
28 | O=C(O)c1cc(O)c(O)c(O)c1 [GALLIC ACID] | < 1
29 | O=C(O)/C=C/c1ccc(O)c(O)c1 [CAFFEIC ACID] | < 1
30 | O=c1cc(-c2ccc(O)cc2)oc2cc(O[C@@H]3O[C@H](CO)[C@@H](O)[C@H](O)[C@H]3O[C@@H]3OC[C@](O)(CO)[C@H]3O)cc(O)c12 [APIIN] | 2
31 | C[C@H]1O[C@H](O[C@H]2[C@H](O)[C@@H](O)[C@@H](O)[C@H](O)[C@@H]2O)[C@@H](N)C[C@@H]1NC(=N)C(=O)O [KASUGAMYCIN HYDROCHLORIDE] | < 1
32 | O=C1c2c(O)cccc2[C@H]([C@@H]2O[C@H](CO)[C@@H](O)[C@H](O)[C@H]2O)c2cc(CO)cc(O)c21 [ALOIN A] | 5.4

Row | Compound | Papp [×10⁻⁶ cm/s]
33 | CC(C)=CCC/C(C)=C/C=C/C(C)=C/C=C/C(C)=C/C=C/C=C(C)/C=C/C=C(C)/C=C/C=C(\C)CCC=C(C)C [LYCOPENE] | < 1
34 | COc1cc(C(=O)O)ccc1O [VANILLIC ACID] | < 1
35 | CC[C@H]1O[C@]2(CC[C@@H]1C)C[C@@H]1C[C@@H](CC=C(C)C[C@@H](C)C=CC=C3CO[C@@H]4[C@H](O)C(C)=C[C@@H](C(=O)O1)[C@]34O)O2 [MILBEMYCIN A4] | 9.9
36 | Nc1nc2c(ncn2[C@@H]2O[C@H](COP(=O)(O)OP(=O)(O)O)[C@@H](O)[C@H]2O)c(=O)[nH]1 [Guanosine pyrophosphate] | < 1
37 | Cc1cc(=O)oc2cc(O)ccc12 [HYMECROMONE] | 9.9
38 | O=c1c(O)c(-c2ccc(O)c(O)c2)oc2cc(O)cc(O)c12 [QUERCETIN] | < 1
39 | Cc1cccc2c3c(ccc12)C1=C(C(=O)C3=O)[C@@H](C)CO1 [DIHYDROTANSHINONE I] | 3.7
40 | COc1cc2c(c(OC)c1OC)-c1ccc(O)c(=O)cc1[C@@H](N)CC2 [N-DEACETYLCOLCHICEINE] | 8.2
41 | N[C@@H](Cc1c[nH]c2ccc(O)cc12)C(=O)O [CINCOFARM] | < 1
42 | O=c1c(O)c(-c2cc(O)c(O)c(O)c2)oc2cc(O)ccc12 [ROBINETIN] | 1
43 | O=c1cc(-c2ccc(O)cc2)oc2c([C@@H]3O[C@H](CO)[C@@H](O)[C@H](O)[C@H]3O)c(O)cc(O)c12 [VITEXIN] | < 1
44 | O=C(O)/C=C/c1ccccc1 [CINNAMIC ACID] | < 1
45 | OCC(O)Cc1ccc2c(c1)OCO2 (stereo not drawn) [SAFROLGLYCOL] | 1.7
46 | O=C(/C=C/c1ccc(O)c(O)c1)c1ccc(O)cc1O [BUTEIN] | < 1
47 | CCCCc1ccc(C(=O)O)nc1 [FUSARIC ACID] | < 1
48 | O=C(OCC1=C[C@@H](O)[C@@H]2C=CO[C@@H](O[C@@H]3O[C@H](CO)[C@@H](O)[C@H](O)[C@H]3O)[C@H]12)c1ccc(O)cc1 [AGNUSIDE] | < 1
49 | O=C(O[C@@H]1Cc2c(O)cc(O)cc2O[C@@H]1c1cc(O)c(=O)c2c(O)c(O)cc([C@H]3Oc4cc(O)cc(O)c4C[C@H]3O)c2c1)c1cc(O)c(O)c(O)c1 [THEAFLAVIN MONOGALLATE] | < 1
50 | O=c1ccc2ccc(O[C@@H]3O[C@H](CO)[C@@H](O)[C@H](O)[C@H]3O)c(O)c2o1 [DAPHNIN] | < 1
51 | COC(=O)/C=C/C(C)=C/C=C/C(C)=C/C=C/C=C(C)/C=C/C=C(C)/C=C/C(=O)O [ISOBIXIN] | 4.2
52 | COC1=C(OC)C(=O)c2ccccc2C1=O [2,3-DIMETHOXYNAPHTHOQUINONE] | 4.7
53 | O=C(OC[C@H]1O[C@@H](OC(=O)c2cc(O)c(O)c(O)c2)[C@H](OC(=O)c2cc(O)c(O)c(O)c2)[C@@H](OC(=O)c2cc(O)c(O)c(O)c2)[C@@H]1OC(=O)c1cc(O)c(O)c(O)c1)c1cc(O)c(O)c(O)c1 [PENTAGALLOYLGLUCOSE] | 3.2
54 | C[n+]1cc2c3c(ccc2c2ccc4cc5c(cc4c21)OCO5)OCO3 [SANGUINARIUM CHLORIDE] | < 1
55 | CNc1ccc(C(=O)CC(O)CCC(C)C2OC(=O)CC(O)CC(=O)CC(O)CC(O)CC(O)CC(O)CC3(O)CC(O)C(C(=O)OC)C(CC(O[C@@H]4O[C@H](C)[C@@H](O)[C@H](N)[C@@H]4O)/C=C/C=C/C=C/C=C/C=C/C=C/C=C/C2C)O3)cc1 (stereo partly drawn) [M[…]] | < 1
56 | O=C(O)CCCc1c[nH]c2ccccc12 [IND[…]] | < 1
57 | COc1cc2c(c(OC)c1OC)-c1ccc(OC)c(=O)cc1[C@@H](NC=O)CC2 [N-FORMYL-N-DEACETYLCOLCHICINE] | 6.6
58 | Oc1ccc(-c2[o+]c3cc(O)cc(O)c3cc2O)cc1 [PELARGONIDIN] | < 1

same assay, conditions: PAMPA, PAMPA-BBB Pe, Table S2: compounds exhibiting moderate to high PAMPA-BBB permeability

Row | Compound | Papp [×10⁻⁶ cm/s]
59 | O=C(/C=C/c1ccccc1)c1ccc(O)cc1O | 223
60 | C/C=C(\C)C(=O)O[C@@H]1c2c(ccc3ccc(=O)oc23)OC(C)(C)[C@@H]1OC(C)=O [PTERYXINE] | 205
61 | COc1ccc(COC(C)=O)cc1 [P-METHOXYBENZYL ACETATE] | 172
62 | COc1cccc(C=O)c1OC | 107
63 | COc1cc(C)cc(O)c1 [3-HYDROXY-5-METHOXYTOLUENE] | 50
64 | COC(=O)c1ccccc1OC [METHYL O-ANISATE] | 120
65 | C=C(C)[C@]12C[C@@H](C)[C@@]34O[C@](Cc5ccccc5)(O[C@@H]1[C@@H]3C=C(COC(=O)Cc1ccc(O)c(OC)c1)C[C@]1(O)C(=O)C(C)=C[C@@H]41)O2 [RESINIFERATOXIN] | 38
66 | CC(=O)c1c(O)cccc1O [2-ACETYLRESORCINOL] | 45
67 | COc1ccc(-c2cc(=O)c3c(O)c(OC)c(OC)cc3o2)cc1O [EUPATORIN] | 281
68 | CC(C)=CCCC(C)=CC(=O)O [NEROLIC ACID] | 17
69 | O=C(/C=C/c1ccc(O)cc1)c1ccc(O)cc1O [TRIHYDROXYCHALCONE] | 169
70 | CCOC(=O)c1c(C)cc(O)cc1O [ETHYL ORSELLINATE] | 137
71 | C=C[C@H]1C[N@@]2CC[C@H]1C[C@@H]2[C@@H](O)c1ccnc2ccccc12 [CINCHONINE] | 22
72 | CN1C[C@H](CO)C=C2c3cccc4[nH]cc(c34)C[C@H]21 [LYSERGOL] | 51
73 | COc1cc(C2c3cc4c(c(O)c3CC3COC(=O)C32)OCO4)cc(OC)c1O (stereo not drawn) [.ALPHA.-PELTATIN A] | 14
74 | CC(C)=CCC[C@@H](C)[C@H]1CC[C@@]2(C)C3=C(CC[C@]12C)[C@@]1(C)CC[C@H](O)C(C)(C)[C@@H]1CC3 [LANOSTEROL] | 13
75 | CN1CC(CO)=C[C@H]2c3cccc4[nH]cc(c34)C[C@H]21 [ELYMOCLAVINE] | 17
76 | CC(=O)OCC=Cc1ccccc1 [CINNAMYL ACETATE] | 88
77 | CC(C)(O)[C@H]1O[C@H]2CC[C@@]3(C)[C@@](O)(CC[C@H]4Cc5c([nH]c6ccccc56)[C@@]43C)C2=CC1=O [PAXILLINE] | 161
78 | O=c1c2ccccc2oc2ccccc12 [XANTHONE] | 173
